Tests used:
Assay in all cases: competitive isoTOP-ABPP
Format in all cases: binding
[1] = target: T1, CNOT4 CCR4-NOT transcription complex subunit 4 (Homo sapiens, UniProt O95628); conditions: for R value (DMSO/fragment) for probe 1 labeling: O95628_K134; for R value (DMSO/fragment) for probe 1 labeling / isoTOP-ABPP reactivity ratio at lysine O95628_K134 / isoTOP-ABPP ratio (R) at liganded lysine O95628_K134: 50 uM, in vitro; for R value (DMSO/fragment) for probe 1 labeling / isoTOP-ABPP reactivity ratio at lysine O95628_K134: 231 sol; for isoTOP-ABPP ratio (R) at liganded lysine O95628_K134: sol, 231; for isoTOP-ABPP ratio, lysine O95628_K134: 50 uM_231_sol_in vitro
T1 construct: isoTOP-ABPP experiments performed in cell lysates (in vitro); endogenous in cells; host or cells: MDA-MB-231 soluble lysate
T1 sequence (O95628 1-575): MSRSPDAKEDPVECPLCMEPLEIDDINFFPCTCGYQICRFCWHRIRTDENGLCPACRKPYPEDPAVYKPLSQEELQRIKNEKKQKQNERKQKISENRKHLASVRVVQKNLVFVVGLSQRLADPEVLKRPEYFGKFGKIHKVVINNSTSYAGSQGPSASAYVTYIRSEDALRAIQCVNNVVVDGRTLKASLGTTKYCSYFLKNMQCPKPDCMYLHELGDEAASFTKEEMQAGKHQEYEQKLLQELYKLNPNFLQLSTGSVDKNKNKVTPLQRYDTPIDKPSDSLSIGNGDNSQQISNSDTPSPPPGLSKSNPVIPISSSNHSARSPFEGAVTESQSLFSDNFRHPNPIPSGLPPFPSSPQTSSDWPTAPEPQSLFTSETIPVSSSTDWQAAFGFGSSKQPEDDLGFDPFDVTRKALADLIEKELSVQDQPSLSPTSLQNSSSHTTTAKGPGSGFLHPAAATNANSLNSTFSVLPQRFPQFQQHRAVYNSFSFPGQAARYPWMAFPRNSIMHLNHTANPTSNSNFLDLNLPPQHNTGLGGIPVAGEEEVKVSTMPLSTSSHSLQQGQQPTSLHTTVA
Outline: (§1)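 Competition format: fragment (50 μM activated ester, 100 μM guanidinylating agent) versus vehicle in lysate, then lysine probe STP-alkyne at 0.1 mM for 1 h. Quantitation by light/heavy TEV-tag MS1 peak areas, reported as R.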

[2] = target: T2, WARS Tryptophan--tRNA ligase, cytoplasmic (Homo sapiens, UniProt P23381); conditions: for R value (DMSO/fragment) for probe 1 labeling: P23381_K256; for R value (DMSO/fragment) for probe 1 labeling / isoTOP-ABPP reactivity ratio at lysine P23381_K256 / isoTOP-ABPP ratio (R) at liganded lysine P23381_K256: 50 uM, in vitro; for R value (DMSO/fragment) for probe 1 labeling / isoTOP-ABPP reactivity ratio at lysine P23381_K256: 231 sol; for isoTOP-ABPP ratio (R) at liganded lysine P23381_K256: sol, 231; for isoTOP-ABPP ratio, lysine P23381_K256: 50 uM_231_sol_in vitro
T2 construct: isoTOP-ABPP experiments performed in cell lysates (in vitro); endogenous in cells; host or cells: soluble proteome of human cancer cell lines (MDA-MB-231; Ramos and Jurkat also prepared)
T2 sequence (P23381 1-471): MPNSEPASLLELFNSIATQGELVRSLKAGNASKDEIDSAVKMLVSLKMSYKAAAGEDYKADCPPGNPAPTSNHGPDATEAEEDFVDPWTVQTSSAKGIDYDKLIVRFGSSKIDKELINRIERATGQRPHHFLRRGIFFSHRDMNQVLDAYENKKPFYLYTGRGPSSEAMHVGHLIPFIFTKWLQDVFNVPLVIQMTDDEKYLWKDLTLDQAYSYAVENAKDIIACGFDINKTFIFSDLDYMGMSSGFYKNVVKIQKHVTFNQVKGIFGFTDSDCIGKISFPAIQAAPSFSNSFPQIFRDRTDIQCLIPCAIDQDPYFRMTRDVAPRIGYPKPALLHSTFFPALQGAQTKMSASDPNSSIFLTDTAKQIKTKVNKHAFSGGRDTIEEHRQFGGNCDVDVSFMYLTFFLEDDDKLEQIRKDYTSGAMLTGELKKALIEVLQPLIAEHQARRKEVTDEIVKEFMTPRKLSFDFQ
Outline: as §1

[3] = target: T3, KPNA2 Importin subunit alpha-2 (Homo sapiens, UniProt P52292); conditions: for R value (DMSO/fragment) for probe 1 labeling: P52292_K459; for R value (DMSO/fragment) for probe 1 labeling / isoTOP-ABPP reactivity ratio at lysine P52292_K459 / isoTOP-ABPP ratio (R) at liganded lysine P52292_K459: 50 uM, in vitro; for R value (DMSO/fragment) for probe 1 labeling / isoTOP-ABPP reactivity ratio at lysine P52292_K459: 231 sol; for isoTOP-ABPP ratio (R) at liganded lysine P52292_K459: sol, 231; for isoTOP-ABPP ratio, lysine P52292_K459: 50 uM_231_sol_in vitro
T3 construct: isoTOP-ABPP experiments performed in cell lysates (in vitro); endogenous in cells; host or cells: soluble proteome of human cancer cell lines (MDA-MB-231, Ramos, Jurkat)
Outline: as §1

[4] = target: T4, POLR2L DNA-directed RNA polymerases I, II, and III subunit (Homo sapiens, UniProt P62875); conditions: for R value (DMSO/fragment) for probe 1 labeling: P62875_K67; for R value (DMSO/fragment) for probe 1 labeling / isoTOP-ABPP reactivity ratio at lysine P62875_K67 / isoTOP-ABPP ratio (R) at liganded lysine P62875_K67: 50 uM, in vitro; for R value (DMSO/fragment) for probe 1 labeling / isoTOP-ABPP reactivity ratio at lysine P62875_K67: 231 sol; for isoTOP-ABPP ratio (R) at liganded lysine P62875_K67: sol, 231; for isoTOP-ABPP ratio, lysine P62875_K67: 50 uM_231_sol_in vitro
T4 construct: isoTOP-ABPP experiments performed in cell lysates (in vitro); endogenous in cells; host or cells: soluble proteome of human cancer cell lines (MDA-MB-231, Ramos, Jurkat)
Outline: as §1

isoTOP-ABPP reactivity ratio at lysine O95628_K134 [1] | isoTOP-ABPP reactivity ratio at lysine P23381_K256 [2] | isoTOP-ABPP reactivity ratio at lysine P52292_K459 [3] | isoTOP-ABPP reactivity ratio at lysine P62875_K67 [4] | SMILES | isoTOP-ABPP ratio (R) at liganded lysine O95628_K134 [1] | isoTOP-ABPP ratio (R) at liganded lysine P23381_K256 [2] | isoTOP-ABPP ratio (R) at liganded lysine P52292_K459 [3] | isoTOP-ABPP ratio (R) at liganded lysine P62875_K67 [4] | further results
– | – | – | – | O=C(CCc1cn(-c2ccccc2)nc1-c1ccccc1)Oc1c(F)c(F)c(F)c(F)c1F [fragment 19, Pentafluorophenyl 3-(1,3-diphenyl-1H-pyrazol-4-yl)propanoate] | – | – | – | – | R value (DMSO/fragment) for probe 1 labeling [1]: 1.1; R value (DMSO/fragment) for probe 1 labeling [2]: 1.2; R value (DMSO/fragment) for probe 1 labeling [3]: 2.3; R value (DMSO/fragment) for probe 1 labeling [4]: 1.0
– | – | – | – | O=C(Oc1c(F)c(F)c(F)c(F)c1F)C(c1ccccc1)c1ccccc1 [fragment 20, Pentafluorophenyl 2,2-diphenylacetate] | – | – | – | – | R value (DMSO/fragment) for probe 1 labeling [1]: 0.9; R value (DMSO/fragment) for probe 1 labeling [2]: 1.3; R value (DMSO/fragment) for probe 1 labeling [3]: 5.5; R value (DMSO/fragment) for probe 1 labeling [4]: 0.9
– | – | – | – | O=C(Oc1c(F)c(F)c(F)c(F)c1F)c1cc(C(F)(F)F)cc(C(F)(F)F)c1 [fragment 21, Pentafluorophenyl 3,5-bis(trifluoromethyl)benzoate] | – | – | – | – | R value (DMSO/fragment) for probe 1 labeling [1]: 1.2; R value (DMSO/fragment) for probe 1 labeling [2]: 1.1; R value (DMSO/fragment) for probe 1 labeling [3]: 1.0; R value (DMSO/fragment) for probe 1 labeling [4]: 0.8
– | – | – | – | Cn1cc(CC(=O)Oc2c(F)c(F)c(F)c(F)c2F)c2ccccc21 [fragment 22, Pentafluorophenyl 2-(1-methyl-1H-indol-3-yl)acetate] | – | – | – | – | R value (DMSO/fragment) for probe 1 labeling [1]: 1.4; R value (DMSO/fragment) for probe 1 labeling [2]: 1.0; R value (DMSO/fragment) for probe 1 labeling [3]: 6.2; R value (DMSO/fragment) for probe 1 labeling [4]: 0.9
1.8 | 4.4 | 1.3 | 1.0 | O=C(Oc1c(F)c(F)c(F)c(F)c1F)c1ccc2ccccc2n1 [fragment 25, Pentafluorophenyl quinoline-2-carboxylate] | – | – | – | – | –
1.1 | 2.3 | 8.2 | 1.1 | O=C(CCc1coc2cc(F)ccc2c1=O)Oc1c(F)c(F)c(F)c(F)c1F [fragment 26, Pentafluorophenyl 3-(7-fluoro-4-oxo-4H-chromen-3-yl)propanoate] | – | – | – | – | –
1.2 | 2.7 | 1.3 | 1.0 | O=C(CN1C(=O)c2ccccc2C1=O)Oc1c(F)c(F)c(F)c(F)c1F [fragment 27, Pentafluorophenyl 2-(1,3-dioxoisoindolin-2-yl)acetate] | – | – | – | – | –
1.0 | 1.0 | 1.3 | 1.0 | CCn1cc(C(=O)Oc2c(F)c(F)c(F)c(F)c2F)c(=O)c2ccc(C)nc21 [fragment 28, Pentafluorophenyl 1-ethyl-7-methyl-4-oxo-1,4-dihydro-1,8-naphthyridine-3-carboxylate] | – | – | – | – | –
– | – | – | – | O=C(Oc1ccc([N+](=O)[O-])cc1[N+](=O)[O-])C1CCN(C(=O)OCc2ccccc2)CC1 [fragment 34, 1-Benzyl 4-(2,4-dinitrophenyl) piperidine-1,4-dicarboxylate] | 1.1 | 1.0 | 1.0 | 1.0 | –
– | – | – | – | O=C(Oc1ccc([N+](=O)[O-])cc1[N+](=O)[O-])c1ccc2ccccc2n1 [fragment 35, 2,4-Dinitrophenyl quinoline-2-carboxylate] | 1.3 | 1.1 | 1.3 | 0.9 | –
– | – | – | – | O=C(Oc1ccc([N+](=O)[O-])cc1[N+](=O)[O-])c1ccc(-c2ccccc2)cc1 [fragment 37, 2,4-Dinitrophenyl [1,1′-biphenyl]-4-carboxylate] | 1.0 | 0.4 | 0.9 | 0.9 | –
– | – | – | – | O=C(Oc1ccc([N+](=O)[O-])cc1[N+](=O)[O-])c1ccc(Oc2ccccc2)cc1 [fragment 39, 2,4-Dinitrophenyl 4-phenoxybenzoate] | 1.0 | 0.9 | 1.0 | 0.9 | –
– | – | – | – | O=C(Oc1ccc([N+](=O)[O-])cc1[N+](=O)[O-])c1ccccc1Nc1cccc(C(F)(F)F)c1 [fragment 40, 2,4-Dinitrophenyl 2-((3-(trifluoromethyl)phenyl)amino)benzoate] | 1.1 | 1.1 | 1.7 | 1.0 | –
– | – | – | – | CC(C)(C)OC(=O)NCCCC(=O)Oc1ccc([N+](=O)[O-])cc1[N+](=O)[O-] [fragment 41, 2,4-Dinitrophenyl 4-((tert-butoxycarbonyl)amino)butanoate] | 1.3 | 0.9 | 2.3 | 2.6 | –
– | – | – | – | O=C(Oc1ccc([N+](=O)[O-])cc1[N+](=O)[O-])C(c1ccccc1)(c1ccccc1)c1ccccc1 [fragment 42, 2,4-Dinitrophenyl 2,2,2-triphenylacetate] | 1.0 | 1.1 | 0.9 | 1.0 | –
– | – | – | – | N#Cc1ccc(C(=O)Oc2ccc([N+](=O)[O-])cc2[N+](=O)[O-])cc1 [fragment 44, 2,4-Dinitrophenyl 4-cyanobenzoate] | – | – | – | – | isoTOP-ABPP ratio, lysine O95628_K134 [1]: 2.0; isoTOP-ABPP ratio, lysine P23381_K256 [2]: 1.1; isoTOP-ABPP ratio, lysine P52292_K459 [3]: 1.6; isoTOP-ABPP ratio, lysine P62875_K67 [4]: 1.0
– | – | – | – | O=C(CCc1ccc2c(c1)OCO2)Oc1ccc([N+](=O)[O-])cc1[N+](=O)[O-] [fragment 45, 2,4-Dinitrophenyl 3-(benzo[d][1,3]dioxol-5-yl)propanoate] | – | – | – | – | isoTOP-ABPP ratio, lysine O95628_K134 [1]: 2.8; isoTOP-ABPP ratio, lysine P23381_K256 [2]: 1.1; isoTOP-ABPP ratio, lysine P52292_K459 [3]: 1.7; isoTOP-ABPP ratio, lysine P62875_K67 [4]: 2.8
– | – | – | – | O=C(ON1C(=O)CCC1=O)c1cc(C(F)(F)F)cc(C(F)(F)F)c1 [fragment 46, 3,5-Bis(trifluoromethyl)benzoic acid NHS ester] | – | – | – | – | isoTOP-ABPP ratio, lysine O95628_K134 [1]: 5.2; isoTOP-ABPP ratio, lysine P23381_K256 [2]: 1.6; isoTOP-ABPP ratio, lysine P52292_K459 [3]: 1.4; isoTOP-ABPP ratio, lysine P62875_K67 [4]: 1.0

SMILES | isoTOP-ABPP reactivity ratio at lysine O95628_K134 [1] | isoTOP-ABPP reactivity ratio at lysine P23381_K256 [2] | isoTOP-ABPP reactivity ratio at lysine P52292_K459 [3] | isoTOP-ABPP reactivity ratio at lysine P62875_K67 [4] | isoTOP-ABPP ratio (R) at liganded lysine O95628_K134 [1] | isoTOP-ABPP ratio (R) at liganded lysine P23381_K256 [2] | isoTOP-ABPP ratio (R) at liganded lysine P52292_K459 [3] | isoTOP-ABPP ratio (R) at liganded lysine P62875_K67 [4] | further results
O=C(Oc1ccc([N+](=O)[O-])cc1[N+](=O)[O-])C(c1ccccc1)c1ccccc1 [fragment 30, 2,4-Dinitrophenyl 2,2-diphenylacetate] | 1.2 | 1.1 | 4.3 | 1.8 | – | – | – | – | –
O=C(Oc1ccc([N+](=O)[O-])cc1[N+](=O)[O-])c1cc(C(F)(F)F)cc(C(F)(F)F)c1 [fragment 31, 2,4-Dinitrophenyl 3,5-bis(trifluoromethyl)benzoate] | 4.3 | 0.9 | 1.3 | 0.9 | – | – | – | – | –

Reference: patent US20210255193A1, “LYSINE REACTIVE PROBES AND USES THEREOF” (The Scripps Research Institute, priority 2017, published 2021)
